Assay results from patent US12331058B2, “SHP2 and CDK4/6 dual-target inhibitory compound and pharmaceutical composition containing the same” (CHINA PHARMACEUTICAL UNIVERSITY, priority 2021, dated 2025).
Like-named read-outs stand apart in the source and are kept apart here.

Tests used:
MDA-MB-468 cells [1] = test: In vitro antiproliferative activity (MTT), MDA-MB-468; format: cell-based; settings: Homo sapiens, MDA-MB-468, 72 h, 3 days of incubation
Procedure: (§1) In Vitro Antiproliferative Activity of Compound 1. Experimental Procedure
(§2) (4) MDA-MB-231, MDA-MB-468 or EMT6 cells are taken out of a liquid nitrogen tank, immediately placed in a constant temperature water bath at 37° C. and melted by shaking, then the cells are poured into a culture flask. The culture solution (containing 10% of fetal bovine serum) is added for dilution. The diluted culture medium is transferred into a centrifuge tube, centrifuged at 1000 r/min for 5 minutes. The supernatant is discarded and fresh culture medium is added for blowing and mixing uniformly. The mixture is transferred into a culture bottle, and cultured in a culture box with a concentration of 5% CO2 at 37° C. When the cells are adhered to the wall and almost fully paved at the bottle bottom, the passage begins. A little amount of fresh culture medium (containing 10% of fetal calf serum) is added to terminate the digestion. The liquid in the culture bottle is poured out, and the culture bottle is washed twice with PBS. The fresh culture medium is added to blow and mix uniformly, and divided evenly into two culture bottles for continuing the culture.
(§3) (5) Cells in the logarithmic phase are taken, and the old culture medium are poured out. The trypsin solution is added for digestion for 3 minutes, and the fresh culture medium containing 10% of fetal bovine serum is added for terminating digestion. The solution is transferred into a centrifuge tube, centrifuged at 1000 r/min for 5 minutes, and the supernatant is discarded. The cells are counted by adding a medium to prepare into a cell suspension. After counting, cells are seeded in 96-well plates at a cell concentration of 5000-10000 cells per well. The 96-well plate with the spread cells is placed in a 5% CO2 incubator at 37° C. for a continuous culture for 24 hours. The drugs are diluted in gradient to 90μ mol/L, 30μ mol/L, 10μ mol/L, […], 0.37μ mol/L with medium and then added to 96-well plates at 100 μL per well, with three multiplex wells per concentration. The control group is added with medium containing solvent with the corresponding concentration, the zeroing hole is added with blank medium with the same volume, and the blank medium is placed in a culture box with 5% CO2 and 37° C. for 3 days of incubation with a replacement of the medium every two days. 20 μL of MTT (5 mg/mL) is added to each well. After mixing uniformly, the mixture is incubated in a 5% CO2 incubator at 37° C. for 4 hours in the absence of light. With a removement of the liquid in the 96-well plate and an addition of 150 μl of DMSO to each well, the mixture is placed on a micro-shaker and shaken to completely dissolve the crystals at the bottom. Subsequently, the 96-well plate is placed in an microplate reader for detection and the absorbance is measured at 490 nm.
(§4) Curve is drawn and inhibition rate of drug to cell and IC50 are calculated. Inhibition ratio=[(average OD value for control group-average OD value for experimental group)/(average OD value for control group-average OD value for blank control group)]×100%. 3. Experimental Results
(§5) The inhibitory activities of the compounds on MDA-MB-231, MDA-MB-468 and EMT6 cell lines are as follows: […]

SHP2 = target: T1, SHP2 (Homo sapiens, UniProt Q06124); test: SHP2 enzyme activity test in vitro;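 note: IC50 derived by variable-slope curve fitting of percent inhibition of SHP2 enzymatic activity plotted against log compound concentration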
T1 sequence (Q06124 1-593): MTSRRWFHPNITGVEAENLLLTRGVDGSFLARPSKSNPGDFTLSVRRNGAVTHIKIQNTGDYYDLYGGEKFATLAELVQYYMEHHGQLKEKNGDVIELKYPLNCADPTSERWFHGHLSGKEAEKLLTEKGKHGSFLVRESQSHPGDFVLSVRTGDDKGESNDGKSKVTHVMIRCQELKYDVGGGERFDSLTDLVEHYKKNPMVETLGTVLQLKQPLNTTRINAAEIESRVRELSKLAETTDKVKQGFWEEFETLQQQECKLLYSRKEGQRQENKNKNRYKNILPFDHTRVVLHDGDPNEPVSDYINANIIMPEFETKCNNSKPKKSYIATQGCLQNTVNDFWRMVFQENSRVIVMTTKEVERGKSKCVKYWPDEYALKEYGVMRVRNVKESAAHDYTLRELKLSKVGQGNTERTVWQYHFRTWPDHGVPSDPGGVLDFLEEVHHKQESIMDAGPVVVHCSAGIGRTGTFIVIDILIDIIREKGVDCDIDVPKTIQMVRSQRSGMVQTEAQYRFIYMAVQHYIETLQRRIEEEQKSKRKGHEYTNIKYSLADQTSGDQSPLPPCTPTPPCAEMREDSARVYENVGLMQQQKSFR
Procedure: SHP2 Enzyme Activity Test In Vitro
SHP2 enzyme activity of the compounds in the above examples are tested as follows.
(§7) The compound is dissolved in 100% DMSO to prepare into a 30 mM storage solution, which is stored in −20° C. refrigerator in the dark.
The log value for concentration is taken as X-axis and the percent inhibition is taken as Y-axis, and the log (inhibitor) vs. response variable slope of the analysis software GraphPad Prism 5 is used to fit the dose-response curve to obtain the IC50 values for each compound on enzyme activity.

MDA-MB-231 cells [2] = test: In vitro antiproliferative activity (MTT), MDA-MB-231; format: cell-based; settings: Homo sapiens, MDA-MB-231, 72 h, 3 days of incubation
Procedure: as §1, §2, §3, §4, §5

SHP2 and CDK4/6 = test: In vitro enzyme activity and antiproliferative activity tests (summary statement)
EMT6 cells = test: In vitro antiproliferative activity (MTT), EMT6; format: cell-based; settings: Mus musculus, EMT6, 72 h, 3 days of incubation
Procedure: as §1, §2, §3, §4, §5

CDK4 = CDK4 (Homo sapiens, UniProt P11802); test: CDK4 enzyme activity test in vitro; format: biochemical; settings: Caliper EZ Reader II conversion
Procedure: CDK4 Enzyme Activity Test In Vitro
as §7
(1) 1×Kinase buffer is prepared.
(2) The preparation of concentration gradient of the compound: tested compound is tested at an initial concentration of 30000 nM according to a customer's request, diluted into a 100% DMSO solution at a 100-fold final concentration in a 384 source plate, diluted by 3-fold with 10 concentrations, 250 nL of compound with a 100-fold final concentration is transferred to the target plate of 384-well-plate by using a dispenser Echo 550.
(3) A Kinase solution with a 2.5-fold final concentration is prepared by using a 1×Kinase buffer.
(4) 10 μL of kinase solution with a 2.5-fold final concentration is added to the compound wells and the positive control wells, respectively; 10 μL of 1×Kinase buffer is added to the negative control wells.
(5) The kinase solution is centrifugated at 1000 rpm for 30 seconds, and incubated at the room temperature for 10 minutes after the reaction plate is shaken and mixed uniformly.
(7) The reaction is initiated by adding 15 μL of the mixed solution of ATP and substrate at a 5/3-fold final concentration.
(8) The 384-well plate is centrifuged at 1000 rpm for 30 seconds, and incubated at the room temperature for 180 minutes after shaking and mixing uniformly.
(9) The kinase reaction is terminated by adding 30 μL of termination detection solution, centrifuged at 1000 rpm for 30 seconds with shaking and mixing uniformly.
(10) The conversion is read by using Caliper EZ Reader II.
Calculation Formula is as follows:
Conversion %_sample denotes a conversion reading of the sample; Conversion % min denotes an average value for negative control wells, represents a conversion reading without enzyme wells; Convesion %_max denotes an average value for positive control wells, represents a conversion reading without compound inhibition wells.

MDA-MB-231 cells [3] = test: Cell cycle experiment (PI flow cytometry), MDA-MB-231; format: cell-based; settings: MDA-MB-231, 48 hours, compared with TNO155, Abemaciclib and their combination
Procedure: (§6) Cells are washed once with PBS and 1 mL of trypsin without EDTA (0.25%) is added. When cells change round and part of the cells are suspended, the digestion is terminated by adding PBS, subsequently, the cells are harvested and fixed in 70% ethanol (500 μL) at 4° C. for 24 hours. Cells are collected by washing with PBS and centrifuged at 1500 rpm for 5 minutes, then stained with PI/RNase in the dark at the room temperature for 30 minutes-60 minutes. After incubation, the cells are analyzed by flow cytometry. All experiments are performed 3 times.

MDA-MB-468 cells [4] = test: Cell cycle experiment (PI flow cytometry), MDA-MB-468; format: cell-based; settings: MDA-MB-468, 48 hours, compared with TNO155, Abemaciclib and their combination
Procedure: as §6

Chain of CDK4 (P11802 whole entry): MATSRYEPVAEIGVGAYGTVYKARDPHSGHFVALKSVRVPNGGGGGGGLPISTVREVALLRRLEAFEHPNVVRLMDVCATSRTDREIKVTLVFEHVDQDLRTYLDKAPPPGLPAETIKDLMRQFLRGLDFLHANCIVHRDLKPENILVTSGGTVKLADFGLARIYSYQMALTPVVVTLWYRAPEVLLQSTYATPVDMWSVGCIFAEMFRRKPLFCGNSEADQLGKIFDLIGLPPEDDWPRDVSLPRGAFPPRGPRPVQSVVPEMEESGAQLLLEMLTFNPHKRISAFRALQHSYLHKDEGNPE
Chain of CDK4 (P30281 whole entry partner): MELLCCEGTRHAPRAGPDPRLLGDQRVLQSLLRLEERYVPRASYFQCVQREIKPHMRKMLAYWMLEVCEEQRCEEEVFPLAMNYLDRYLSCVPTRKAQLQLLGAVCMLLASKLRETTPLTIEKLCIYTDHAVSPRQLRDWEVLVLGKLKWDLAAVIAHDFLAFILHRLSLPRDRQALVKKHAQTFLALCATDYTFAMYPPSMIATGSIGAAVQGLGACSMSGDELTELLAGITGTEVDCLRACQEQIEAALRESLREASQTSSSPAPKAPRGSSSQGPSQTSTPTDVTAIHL

Compound	IC50 (MDA-MB-468 cells [1]) [µM]	IC50 (SHP2) [nM]	IC50 (MDA-MB-231 cells [2]) [µM]	IC50 (EMT6 cells) [µM]	IC50 (CDK4) [nM]	also measured
Cc1nc2c(F)cc(-c3nc(Nc4nccc(Sc5cnc(N6CCC7(CC6)Cc6ccccc6[C@H]7N)cn5)c4Cl)ncc3F)cc2n1C(C)C [Compound 10]	5.9	10	4.4	1.1	–	double-target inhibition activity (SHP2 and CDK4/6): better double-target inhibition activity
Cc1nc2c(F)cc(-c3nc(Nc4cnc(Sc5cnc(N6CCC7(CC6)CO[C@@H](C)[C@H]7N)cn5)c(Cl)c4)ncc3F)cc2n1C(C)C [Compound 13]	–	216	–	–	11	–
Cc1nc2c(F)cc(-c3nc(Nc4cc(Sc5cnc(N6CCC7(CC6)CO[C@@H](C)[C@H]7N)cn5)ccn4)ncc3F)cc2n1C(C)C [Compound 26]	9.6	48	5.1	1.1	17	double-target inhibition activity (SHP2 and CDK4/6): better double-target inhibition activity
CN(C)C(=O)c1cc2cnc(Nc3ccc(Sc4cnc(N5CCC6(CC5)Cc5ccccc5[C@H]6N)cn4)c(Cl)n3)nc2n1C1CCCC1 [Compound 9]	–	36	–	–	538	–
Cc1nc2c(F)cc(-c3nc(Nc4ccc(Cl)c(Sc5cnc(N6CCC7(CC6)CO[C@@H](C)[C@H]7N)cn5)n4)ncc3F)cc2n1C(C)C [Compound 20]	–	598	–	–	123	–
C[C@@H]1OCC2(CCN(c3cnc(Sc4ccnc(N)c4Cl)c(N)n3)CC2)[C@@H]1N [TNO155, reference compound]	> 20	–	> 20	7	–	–
Cc1nc2c(F)cc(-c3nc(Nc4ccc(Sc5cnc(N6CCC7(CC6)Cc6ccccc6[C@H]7N)cn5)c(Cl)n4)ncc3F)cc2n1C(C)C [Compound 24]	–	> 1000	–	–	> 1000	–
Cc1nc2c(F)cc(-c3nc(Nc4cc(Cl)c(Sc5cnc(N6CCC7(CC6)CO[C@@H](C)[C@H]7N)cn5)cn4)ncc3F)cc2n1C(C)C [Compound 21]	–	> 1000	–	–	9	–
Cc1nc2c(F)cc(-c3nc(Nc4ccc(Sc5cnc(N6CCC7(CC6)CO[C@@H](C)[C@H]7N)cn5)c(Cl)n4)ncc3F)cc2n1C(C)C [Compound 15]	–	> 1000	–	–	145	–
CCN1CCN(Cc2ccc(Nc3ncc(F)c(-c4cc(F)c5nc(C)n(C(C)C)c5c4)n3)nc2)CC1 [Abemaciclib, reference compound]	> 20	–	> 20	4.2	–	–
CN(C)C(=O)c1cc2cnc(Nc3nccc(Sc4cnc(N5CCC(C)(N)CC5)cn4)c3Cl)nc2n1C1CCCC1 [Compound 4]	–	30	–	–	435	–
Cc1nc2c(F)cc(-c3nc(Nc4ccc(Sc5cnc(N6CCC7(CC6)CO[C@@H](C)[C@H]7N)cn5)c(Cl)c4)ncc3F)cc2n1C(C)C [Compound 23]	10.5	–	3.2	1.7	–	IC50 (SHP2; read-out: SHP2 IC50, fluorescence Ex355/Em460, activation peptide): 61 nM; double-target inhibition activity (SHP2 and CDK4/6): better double-target inhibition activity
Cc1nc2c(F)cc(-c3nc(Nc4nccc(Sc5cnc(N6CCC7(CC6)CO[C@@H](C)[C@H]7N)cn5)c4C#N)ncc3F)cc2n1C(C)C [Compound 19]	3.7	9	9.6	0.7	3	double-target inhibition activity (SHP2 and CDK4/6): better double-target inhibition activity
Cc1nc2c(F)cc(-c3nc(Nc4ccc(Sc5cnc(N6CCC(C)(N)CC6)cn5)c(C#N)n4)ncc3F)cc2n1C(C)C [Compound 11]	–	> 1000	–	–	31	–
CN(C)C(=O)c1cc2cnc(Nc3nccc(Sc4cnc(N5CC[C@H](N)c6ccccc6C5)cn4)c3Cl)nc2n1C1CCCC1 [Compound 6]	–	736	–	–	> 1000	–
Cc1nc2c(F)cc(-c3nc(Nc4nccc(Sc5cnc(N6CCC7(CC6)CO[C@@H](C)[C@H]7N)cn5)c4Cl)ncc3F)cc2n1C(C)C [Compound 14]	1.8	5	6.4	0.6	19	G0/G1 phase arrest (MDA-MB-231 cells [3]): better cycle G0/G1 phase arrest; double-target inhibition activity (SHP2 and CDK4/6): better double-target inhibition activity; G0/G1 phase arrest (MDA-MB-468 cells [4]): better cycle G0/G1 phase arrest
CN(C)C(=O)c1cc2cnc(Nc3ccc(Sc4cnc(N5CCC(C)(N)CC5)cn4)cn3)nc2n1C1CCCC1 [Compound 2]	–	> 1000	–	–	9	–
CN(C)C(=O)c1cc2cnc(Nc3ccc(Sc4cnc(N5CCC6(CC5)Cc5ccccc5[C@H]6N)cn4)c(Cl)c3)nc2n1C1CCCC1 [Compound 3]	–	57	–	–	> 1000	–
CN(C)C(=O)c1cc2cnc(Nc3nccc(Sc4cnc(N5CCC6(CC5)Cc5ccccc5[C@H]6N)cn4)c3Cl)nc2n1C1CCCC1 [Compound 5]	–	4	–	–	> 1000	–
CN(C)C(=O)c1cc2cnc(Nc3ccc(Sc4cnc(N5CCC(C)(N)CC5)cn4)c(Cl)n3)nc2n1C1CCCC1 [Compound 16]	–	> 1000	–	–	–	–
Cc1nc2c(F)cc(-c3nc(Nc4cc(Sc5cnc(N6CCC7(CC6)CO[C@@H](C)[C@H]7N)cn5)c(Cl)cn4)ncc3F)cc2n1C(C)C [Compound 17]	–	> 1000	–	–	> 1000	–
CN(C)C(=O)c1cc2cnc(Sc3cnc(N4CCC(C)(N)CC4)cn3)cc2n1C1CCCC1 [Compound 1]	–	> 1000	–	–	> 1000	–
CN(C)C(=O)c1cc2cnc(Nc3nccc(Sc4cnc(N5CCN([C@H]6Cc7ccccc7[C@H]6N)CC5)cn4)c3Cl)nc2n1C1CCCC1 [Compound 8]	–	> 1000	–	–	905	–
CN(C)C(=O)c1cc2cnc(N(c3ncc4cc(C(=O)N(C)C)n(C5CCCC5)c4n3)c3nccc(Sc4cnc(N5CC[C@H](N)c6ccccc6C5)cn4)c3Cl)nc2n1C1CCCC1 [Compound 7]	–	> 1000	–	–	> 1000	–
Cc1nc2c(F)cc(-c3nc(Nc4cccc(Sc5cnc(N6CCC7(CC6)CO[C@@H](C)[C@H]7N)cn5)c4Cl)ncc3F)cc2n1C(C)C [Compound 25]	9.1	15	4.6	0.6	8	double-target inhibition activity (SHP2 and CDK4/6): better double-target inhibition activity
Cc1nc2c(F)cc(-c3nc(Nc4ccc(Sc5cnc(N6CCC7(CC6)CO[C@@H](C)[C@H]7N)cn5)c(C#N)n4)ncc3F)cc2n1C(C)C [Compound 12]	–	> 1000	–	–	141	–
